The source made the active and inactive calls. No cut-off for these calls is given here.
Tests used:
[1] = tested on: K562; test: Induction of apoptosis in human K562 cells assessed as apoptosis at 3.4 uM after 24 to 72 hrs using annexin V/PI followed by flow cytometry; assay type: functional, cell-based; conditions: time 24-72 hrs
[2] = tested on: Danio rerio; test: Toxicity in zebrafish embryos assessed as pericardial edema at 5 uM after 72 hrs by visual analysis (reference value: 10%); assay type: organism-based, Embryo; conditions: in vivo
[3] = tested on: Danio rerio; test: Toxicity in zebrafish embryos assessed as pericardial edema at 0.005 uM after 72 hrs by visual analysis (reference value: 10%); assay type: organism-based, Embryo; conditions: in vivo
[4] = tested on: HPBALL; test: Induction of apoptosis in human HPBALL cells assessed as annexin V positive cells at 5 uM after 48 hrs by annexin V/PI staining measured by flow cytometry; assay type: functional, cell-based
[5] = tested on: Danio rerio; test: Toxicity in zebrafish embryos assessed as yolk sac edema at 0.005 uM after 72 hrs by visual analysis (reference value: 0%); assay type: organism-based, Embryo; conditions: in vivo
[6] = species: Danio rerio; test: Toxicity in zebrafish embryos assessed as brain hemorrhage at 0.05 uM after 72 hrs by visual analysis (reference value: 0%); assay type: organism-based; conditions: in vivo
[7] = species: Danio rerio; test: Toxicity in zebrafish embryos assessed as malformation of tail at 0.5 uM after 72 hrs by visual analysis (reference value: 5%); assay type: organism-based; conditions: in vivo
[8] = tested on: Danio rerio; test: Toxicity in zebrafish embryos assessed as pericardial edema at 50 uM after 72 hrs by visual analysis (reference value: 10%); assay type: organism-based, Embryo; conditions: in vivo
[9] = species: Danio rerio; test: Toxicity in zebrafish embryos assessed as tail necrosis at 0.05 uM after 72 hrs by visual analysis (reference value: 0%); assay type: organism-based; conditions: in vivo
[10] = species: Danio rerio; test: Toxicity in zebrafish embryos assessed as malformation of head at 0.05 uM after 72 hrs by visual analysis (reference value: 0%); assay type: organism-based; conditions: in vivo
[11] = species: Danio rerio; test: Toxicity in zebrafish embryos assessed as cardiac teratogenesis/necrosis at 0.5 uM after 72 hrs by visual analysis (reference value: 0%); assay type: organism-based, Embryo; conditions: in vivo
[12] = tested on: Danio rerio; test: Toxicity in zebrafish embryos assessed as yolk sac edema at 0.5 uM after 72 hrs by visual analysis (reference value: 0%); assay type: organism-based, Embryo; conditions: in vivo
[13] = species: Danio rerio; test: Toxicity in zebrafish embryos assessed as brain hemorrhage at 5 uM after 72 hrs by visual analysis (reference value: 0%); assay type: organism-based; conditions: in vivo
[14] = tested on: Danio rerio; test: Toxicity in zebrafish embryos assessed as yolk sac edema at 0.05 uM after 72 hrs by visual analysis (reference value: 0%); assay type: organism-based, Embryo; conditions: in vivo
[15] = species: Danio rerio; test: Toxicity in zebrafish embryos assessed as brain hemorrhage at 0.5 uM after 72 hrs by visual analysis (reference value: 0%); assay type: organism-based; conditions: in vivo
[16] = species: Danio rerio; test: Toxicity in zebrafish embryos assessed as small eyes at 0.5 uM after 72 hrs by visual analysis (reference value: 10%); assay type: organism-based, Embryo; conditions: in vivo
[17] = species: Danio rerio; test: Toxicity in zebrafish embryos assessed as head necrosis at 0.005 uM after 72 hrs by visual analysis (reference value: 0%); assay type: organism-based; conditions: in vivo
[18] = species: Danio rerio; test: Toxicity in zebrafish embryos assessed as teratogenesis at 0.5 uM after 72 hrs by visual analysis (reference value: 0%); assay type: organism-based, Embryo; conditions: in vivo
[19] = species: Danio rerio; test: Toxicity in zebrafish embryos assessed as tail necrosis at 50 uM after 72 hrs by visual analysis (reference value: 0%); assay type: organism-based; conditions: in vivo
[20] = species: Danio rerio; test: Toxicity in zebrafish embryos assessed as small eyes at 5 uM after 72 hrs by visual analysis (reference value: 10%); assay type: organism-based, Embryo; conditions: in vivo
[21] = species: Danio rerio; test: Toxicity in zebrafish embryos assessed as malformation of head at 50 uM after 72 hrs by visual analysis (reference value: 0%); assay type: organism-based; conditions: in vivo
[22] = species: Danio rerio; test: Toxicity in zebrafish embryos assessed as malformation of tail at 50 uM after 72 hrs by visual analysis (reference value: 5%); assay type: organism-based; conditions: in vivo
[23] = species: Danio rerio; test: Toxicity in zebrafish embryos assessed as cardiac teratogenesis/necrosis at 0.05 uM after 72 hrs by visual analysis (reference value: 0%); assay type: organism-based, Embryo; conditions: in vivo
[24] = tested on: Danio rerio; test: Toxicity in zebrafish embryos assessed as pericardial edema at 0.05 uM after 72 hrs by visual analysis (reference value: 10%); assay type: organism-based, Embryo; conditions: in vivo
[25] = species: Danio rerio; test: Toxicity in zebrafish embryos assessed as teratogenesis at 0.05 uM after 72 hrs by visual analysis (reference value: 0%); assay type: organism-based, Embryo; conditions: in vivo
[26] = tested on: HPBALL; test: Anticancer activity against human HPBALL cells assessed as reduction in size of colony at 5 uM measured after 24 hrs by colony formation assay; assay type: functional, cell-based
[27] = species: Danio rerio; test: Toxicity in zebrafish embryos assessed as head necrosis at 0.5 uM after 72 hrs by visual analysis (reference value: 0%); assay type: organism-based; conditions: in vivo
[28] = Nonlethal toxicity in zebrafish embryos assessed as embryo survival at 0.05 uM after 72 hrs by visual analysis (reference value: 100%); assay type: organism-based, Danio rerio; conditions: in vivo
[29] = species: Danio rerio; test: Toxicity in zebrafish embryos assessed as head necrosis at 5 uM after 72 hrs by visual analysis (reference value: 0%); assay type: organism-based; conditions: in vivo
[30] = species: Danio rerio; test: Toxicity in zebrafish embryos assessed as teratogenesis at 5 uM after 72 hrs by visual analysis (reference value: 0%); assay type: organism-based, Embryo; conditions: in vivo

CCc1c(C(=O)Nc2cc(/C=C/C(=O)NO)ccc2OC)[nH]c(C)c1C(C)=O
Activity [1]: Active

Cc1[nH]c(C(=O)Nc2cc(S(=O)(=O)N3CCOCC3)ccc2OCCCCCCCC(=O)NO)c2c1C(=O)CCCC2
Activity [2]: 10%
Activity [3]: 15%
Activity [4]: Active
Activity [5]: 5%
Activity [6]: 0%
Activity [7]: 15%
Activity [8]: 15%
Activity [9]: 0%
Activity [10]: 0%
Activity [11]: 0%
Activity [12]: 15%
Activity [13]: 0%
Activity [14]: 5%
Activity [15]: 0%
Activity [16]: 15%
Activity [17]: 15%
Activity [18]: 15%
Activity [19]: 15%
Activity [20]: 5%
Activity [21]: 15%
Activity [22]: 15%
Activity [23]: 0%
Activity [24]: 10%
Activity [25]: 10%
Activity [26]: Active
Activity [27]: 15%
survival at 72 h, 0.05 µM [28]: 95%
Activity [29]: 0%
Activity [30]: 15%
